Source: the NIST ThermoML archive (doi:10.1021/je800754w)
± gives the expanded uncertainty stated by the source.

Assay: activity coefficient (dimensionless); of the first substance listed, at infinite dilution; xn = mol fraction of the nth substance listed
Details: Liquid, Chromatography, x1 = 0

SMILES | activity coefficient (302.45 K) | activity coefficient (322.35 K) | activity coefficient (342.45 K)
C1COCCO1 [1,4-dioxane] + CCCCCCCCCCCCCC[P+](CCCCCC)(CCCCCC)CCCCCC.O=S(=O)([N-]S(=O)(=O)C(F)(F)F)C(F)(F)F | 0.51 ± 0.04 | 0.49 ± 0.04 | 0.48 ± 0.04
C#CCCCCC [1-heptyne] + CCCCCCCCCCCCCC[P+](CCCCCC)(CCCCCC)CCCCCC.O=S(=O)([N-]S(=O)(=O)C(F)(F)F)C(F)(F)F | 0.77 ± 0.05 | 0.78 ± 0.05 | 0.8 ± 0.05
C#CCCCC [1-hexyne] + CCCCCCCCCCCCCC[P+](CCCCCC)(CCCCCC)CCCCCC.O=S(=O)([N-]S(=O)(=O)C(F)(F)F)C(F)(F)F | 0.7 ± 0.1 | 0.69 ± 0.05 | 0.67 ± 0.05
CCC[N+](=O)[O-] [1-nitropropane] + CCCCCCCCCCCCCC[P+](CCCCCC)(CCCCCC)CCCCCC.O=S(=O)([N-]S(=O)(=O)C(F)(F)F)C(F)(F)F | 2.19 ± 0.15 | 1.62 ± 0.11 | 1.35 ± 0.09
CC(C)CO [2-methyl-1-propanol] + CCCCCCCCCCCCCC[P+](CCCCCC)(CCCCCC)CCCCCC.O=S(=O)([N-]S(=O)(=O)C(F)(F)F)C(F)(F)F | 1.49 ± 0.1 | 1.15 ± 0.07 | 0.95 ± 0.06
CCC(C)CC [3-methylpentane] + CCCCCCCCCCCCCC[P+](CCCCCC)(CCCCCC)CCCCCC.O=S(=O)([N-]S(=O)(=O)C(F)(F)F)C(F)(F)F | 1.04 ± 0.07 | 0.98 ± 0.06 | 0.94 ± 0.06
CC#N [acetonitrile] + CCCCCCCCCCCCCC[P+](CCCCCC)(CCCCCC)CCCCCC.O=S(=O)([N-]S(=O)(=O)C(F)(F)F)C(F)(F)F | 0.56 ± 0.04 | 0.5 ± 0.04 | 0.46 ± 0.04
c1ccccc1 [benzene] + CCCCCCCCCCCCCC[P+](CCCCCC)(CCCCCC)CCCCCC.O=S(=O)([N-]S(=O)(=O)C(F)(F)F)C(F)(F)F | 0.39 ± 0.03 | 0.39 ± 0.03 | 0.39 ± 0.03
CCCCO [butan-1-ol] + CCCCCCCCCCCCCC[P+](CCCCCC)(CCCCCC)CCCCCC.O=S(=O)([N-]S(=O)(=O)C(F)(F)F)C(F)(F)F | 1.62 ± 0.11 | 1.26 ± 0.08 | 1.04 ± 0.07
CCCC=O [butanal] + CCCCCCCCCCCCCC[P+](CCCCCC)(CCCCCC)CCCCCC.O=S(=O)([N-]S(=O)(=O)C(F)(F)F)C(F)(F)F | 0.38 ± 0.03 | 0.36 ± 0.03 | 0.35 ± 0.03
CCC(C)=O [butanone] + CCCCCCCCCCCCCC[P+](CCCCCC)(CCCCCC)CCCCCC.O=S(=O)([N-]S(=O)(=O)C(F)(F)F)C(F)(F)F | 0.28 ± 0.03 | 0.27 ± 0.03 | 0.23 ± 0.03
C1CCCCCC1 [cycloheptane] + CCCCCCCCCCCCCC[P+](CCCCCC)(CCCCCC)CCCCCC.O=S(=O)([N-]S(=O)(=O)C(F)(F)F)C(F)(F)F | 0.83 ± 0.05 | 1.81 ± 0.12 | 3.59 ± 0.24
C1CCCCC1 [cyclohexane] + CCCCCCCCCCCCCC[P+](CCCCCC)(CCCCCC)CCCCCC.O=S(=O)([N-]S(=O)(=O)C(F)(F)F)C(F)(F)F | 0.83 ± 0.05 | 0.78 ± 0.05 | 0.75 ± 0.05
CCCCCCCCCC [decane] + CCCCCCCCCCCCCC[P+](CCCCCC)(CCCCCC)CCCCCC.O=S(=O)([N-]S(=O)(=O)C(F)(F)F)C(F)(F)F | 1.97 ± 0.13 | 1.89 ± 0.13 | 1.84 ± 0.12
ClCCl [dichloromethane] + CCCCCCCCCCCCCC[P+](CCCCCC)(CCCCCC)CCCCCC.O=S(=O)([N-]S(=O)(=O)C(F)(F)F)C(F)(F)F | 0.23 ± 0.03 | 0.25 ± 0.03 | 0.27 ± 0.03
CCOCC [diethyl ether] + CCCCCCCCCCCCCC[P+](CCCCCC)(CCCCCC)CCCCCC.O=S(=O)([N-]S(=O)(=O)C(F)(F)F)C(F)(F)F | 0.62 ± 0.04 | 0.59 ± 0.04 | 0.57 ± 0.04
CC(C)OC(C)C [diisopropyl ether] + CCCCCCCCCCCCCC[P+](CCCCCC)(CCCCCC)CCCCCC.O=S(=O)([N-]S(=O)(=O)C(F)(F)F)C(F)(F)F | 0.93 ± 0.06 | 0.9 ± 0.06 | 0.87 ± 0.06
CCO [ethanol] + CCCCCCCCCCCCCC[P+](CCCCCC)(CCCCCC)CCCCCC.O=S(=O)([N-]S(=O)(=O)C(F)(F)F)C(F)(F)F | 1.56 ± 0.1 | 1.23 ± 0.08 | 1.01 ± 0.06
CCc1ccccc1 [ethylbenzene] + CCCCCCCCCCCCCC[P+](CCCCCC)(CCCCCC)CCCCCC.O=S(=O)([N-]S(=O)(=O)C(F)(F)F)C(F)(F)F | 0.54 ± 0.04 | 0.57 ± 0.04 | 0.59 ± 0.04
CCCCCCC [heptane] + CCCCCCCCCCCCCC[P+](CCCCCC)(CCCCCC)CCCCCC.O=S(=O)([N-]S(=O)(=O)C(F)(F)F)C(F)(F)F | 1.27 ± 0.08 | 1.22 ± 0.08 | 1.19 ± 0.08

SMILES | activity coefficient (302.45 K) | activity coefficient (322.35 K) | activity coefficient (342.45 K)
C=CCCCC [hex-1-ene] + CCCCCCCCCCCCCC[P+](CCCCCC)(CCCCCC)CCCCCC.O=S(=O)([N-]S(=O)(=O)C(F)(F)F)C(F)(F)F | 0.91 ± 0.06 | 0.87 ± 0.06 | 0.85 ± 0.05
CCCCCC [hexane] + CCCCCCCCCCCCCC[P+](CCCCCC)(CCCCCC)CCCCCC.O=S(=O)([N-]S(=O)(=O)C(F)(F)F)C(F)(F)F | 1.09 ± 0.07 | 1.04 ± 0.07 | 1.01 ± 0.06
C=O [methanal] + CCCCCCCCCCCCCC[P+](CCCCCC)(CCCCCC)CCCCCC.O=S(=O)([N-]S(=O)(=O)C(F)(F)F)C(F)(F)F | 0.06 | 0.06 | 0.07 ± 0.03
CO [methanol] + CCCCCCCCCCCCCC[P+](CCCCCC)(CCCCCC)CCCCCC.O=S(=O)([N-]S(=O)(=O)C(F)(F)F)C(F)(F)F | 1.29 ± 0.08 | 0.98 ± 0.06 | 0.86 ± 0.06
CC1CCCCC1 [methylcyclohexane] + CCCCCCCCCCCCCC[P+](CCCCCC)(CCCCCC)CCCCCC.O=S(=O)([N-]S(=O)(=O)C(F)(F)F)C(F)(F)F | 0.92 ± 0.06 | 0.89 ± 0.06 | 0.86 ± 0.06
CC1CCCC1 [methylcyclopentane] + CCCCCCCCCCCCCC[P+](CCCCCC)(CCCCCC)CCCCCC.O=S(=O)([N-]S(=O)(=O)C(F)(F)F)C(F)(F)F | 0.85 ± 0.05 | 0.8 ± 0.1 | 0.77 ± 0.05
C[N+](=O)[O-] [nitromethane] + CCCCCCCCCCCCCC[P+](CCCCCC)(CCCCCC)CCCCCC.O=S(=O)([N-]S(=O)(=O)C(F)(F)F)C(F)(F)F | 0.77 ± 0.05 | 0.64 ± 0.04 | 0.58 ± 0.04
CCCCCCCCC [nonane] + CCCCCCCCCCCCCC[P+](CCCCCC)(CCCCCC)CCCCCC.O=S(=O)([N-]S(=O)(=O)C(F)(F)F)C(F)(F)F | 1.87 ± 0.13 | 1.8 ± 0.1 | 1.74 ± 0.12
CCCCCCCC [octane] + CCCCCCCCCCCCCC[P+](CCCCCC)(CCCCCC)CCCCCC.O=S(=O)([N-]S(=O)(=O)C(F)(F)F)C(F)(F)F | 1.48 ± 0.1 | 1.42 ± 0.09 | 1.4 ± 0.1
CCCC(C)=O [pentan-2-one] + CCCCCCCCCCCCCC[P+](CCCCCC)(CCCCCC)CCCCCC.O=S(=O)([N-]S(=O)(=O)C(F)(F)F)C(F)(F)F | 0.31 ± 0.03 | 0.32 ± 0.03 | 0.33 ± 0.03
CCCO [propan-1-ol] + CCCCCCCCCCCCCC[P+](CCCCCC)(CCCCCC)CCCCCC.O=S(=O)([N-]S(=O)(=O)C(F)(F)F)C(F)(F)F | 1.53 ± 0.1 | 1.21 ± 0.08 | 1 ± 0.06
CC(C)O [propan-2-ol] + CCCCCCCCCCCCCC[P+](CCCCCC)(CCCCCC)CCCCCC.O=S(=O)([N-]S(=O)(=O)C(F)(F)F)C(F)(F)F | – | 1.22 ± 0.08 | 0.99 ± 0.06
CCC=O [propanal] + CCCCCCCCCCCCCC[P+](CCCCCC)(CCCCCC)CCCCCC.O=S(=O)([N-]S(=O)(=O)C(F)(F)F)C(F)(F)F | 0.35 ± 0.03 | 0.33 ± 0.03 | 0.31 ± 0.03
c1ccncc1 [pyridine] + CCCCCCCCCCCCCC[P+](CCCCCC)(CCCCCC)CCCCCC.O=S(=O)([N-]S(=O)(=O)C(F)(F)F)C(F)(F)F | 0.52 ± 0.04 | 0.41 ± 0.03 | 0.34 ± 0.03
ClC(Cl)(Cl)Cl [tetrachloromethane] + CCCCCCCCCCCCCC[P+](CCCCCC)(CCCCCC)CCCCCC.O=S(=O)([N-]S(=O)(=O)C(F)(F)F)C(F)(F)F | 0.55 ± 0.04 | 0.55 ± 0.04 | 0.55 ± 0.04
c1ccsc1 [thiophene] + CCCCCCCCCCCCCC[P+](CCCCCC)(CCCCCC)CCCCCC.O=S(=O)([N-]S(=O)(=O)C(F)(F)F)C(F)(F)F | 0.42 ± 0.04 | 0.4 ± 0.03 | 0.38 ± 0.03
Cc1ccccc1 [toluene] + CCCCCCCCCCCCCC[P+](CCCCCC)(CCCCCC)CCCCCC.O=S(=O)([N-]S(=O)(=O)C(F)(F)F)C(F)(F)F | 0.46 ± 0.04 | 0.46 ± 0.04 | 0.47 ± 0.04
ClC(Cl)Cl [trichloromethane] + CCCCCCCCCCCCCC[P+](CCCCCC)(CCCCCC)CCCCCC.O=S(=O)([N-]S(=O)(=O)C(F)(F)F)C(F)(F)F | 0.29 ± 0.03 | 0.31 ± 0.03 | 0.32 ± 0.03
CCCCCCCCCCC [undecane] + CCCCCCCCCCCCCC[P+](CCCCCC)(CCCCCC)CCCCCC.O=S(=O)([N-]S(=O)(=O)C(F)(F)F)C(F)(F)F | 2.32 ± 0.16 | 2.18 ± 0.15 | 2.1 ± 0.2
